Measurements reported in patent US5639603A, “Synthesizing and screening molecular diversity” (Affymax Technologies N.V., priority 1993, dated 1997).
Where a SMILES comes first, the peptide text is derived from it. Where no end group is shown, it is not given here. [ ]: non-standard residue; d: D form.

What was measured:
[1] = tested on: anti-dynorphin B mAb D32.39; assay: flow cytometry (FACS) staining of beads with mAb D32.39 and phycoerythrin-conjugated second antibody; type: binding, mouse; conditions: for blocking of D32.39 binding to library beads by preincubating the mAb with soluble peptide: flow cytometry, soluble peptide at final concentration 10 μM
Method: The binding of mAb D32.39 to control beads and to the bead library was analyzed by flow cytometry. […] By contrast, only a small fraction of the encoded library bound D32.39. Analysis of 10^5 events indicated ~2% of the library stained above background levels. […] The amplification reactions contained dUTP and uracil DNA glycosidase to prevent carryover contamination with soluble product from previous amplifications (see Longo et al., 1990, Gene 93: 125-128, incorporated herein by reference).
A portion of a library (typically 0.5-2 mg of beads) was suspended in blocking buffer (PBS, 1% BSA, 0.05% Tween-20) and incubated at room temperature for 1 hr. The beads were pelleted by centrifugation and resuspended in a solution of mAb D32.39 ([…] in blocking buffer). The suspension was incubated on ice for 30 min., pelleted by centrifugation, and washed with blocking buffer. The beads were then suspended in a solution of phycoerythrin-conjugated goat anti-mouse antibody (Molecular Probes) for 20 min. on ice. The beads were washed in blocking buffer and diluted in PBS for delivery into the fluorescence activated cell sorting (FACS) instrument (Becton Dickinson FACStar Plus). Beads which had bound the mAb D32.39 were identified by their acquired fluorescence. Individual beads from both the most brightly stained 0.17% of the library and from the region having the lowest fluorescence (ca. 98%) were sorted into PCR microfuge vials. Specific binding of D32.39 to the beads was blocked by preincubation of the mAb with the soluble peptide Ac-RQFKVVT-OH (SEQ ID NO:2) at a final concentration of 10 μM.

[2] = target: monoclonal antibody D32.39; assay: competition binding experiment with radiolabelled tracer peptide on D32.39-coated wells; conditions: competition with 33P-labelled tracer LRRASLGGGRRQFKVVT 50 pM; wells coated with D32.39 0.1 μg/mL; 2 hr at 4° C.; IC50 taken as close to Kd
Method: The binding affinities of various peptides for the monoclonal antibody D32.39 were measured in a competition binding experiment. […] The peptide mixtures were added to polystyrene wells coated with D32.39 (0.1 μg/mL). Samples were incubated 2 hr. at 4° C., the wells washed with PBS, and the radioactivity associated with each well was counted and used to generate a competitive binding curve. Under the conditions of the assay the IC50 should be close to the dissociation constant (Kd) for the peptide.

[3] = target: anti-dynorphin B mAb D32.39; conditions: soluble hepta-peptide; see Cull et al.; cited from earlier work

Molecule	Kd [2] [nM]	also measured
CC(=O)N[C@@H](CCCNC(=N)N)C(=O)N[C@@H](CCC(N)=O)C(=O)N[C@@H](Cc1ccccc1)C(=O)N[C@@H](CCCCN)C(=O)N[C@H](C(=O)N[C@H](C(=O)N[C@H](C(=O)O)[C@@H](C)O)C(C)C)C(C)C [Ac-RQFKVVT-OH] (Ac-RQFKVVT-OH)	–	blocking of D32.39 binding to library beads by preincubating the mAb with soluble peptide [1]: blocked
CC(=O)N[C@@H](CCCCN)C(=O)N[C@@H](CCC(N)=O)C(=O)N[C@@H](Cc1ccccc1)C(=O)N[C@@H](CCCCN)C(=O)N[C@H](C(=O)N[C@H](C(=O)N[C@@H](CCCCN)C(=O)N[C@H](C(=O)O)[C@@H](C)O)[C@@H](C)O)C(C)C [KQFKVTKT] (Ac-KQFKVTKT-OH)	340	–
KQFKVTQT	410	–
RQFKVVT (RQFKVVT-NH2) [H-Arg-Gln-Phe-Lys-Val-Val-Thr-NH2, C-terminal seven amino acid fragment of the opioid peptide dynorphin B; positive control]	–	Kd [3]: ~1 nM; staining by mAb D32.39 of beads carrying the sequence ([1]; 10 μm beads carrying peptide and 69-mer oligonucleotide tag, blank beads unstained): strongly stained; blocking of D32.39 binding to library beads by preincubating the mAb with soluble peptide [1]: completely blocked
RQFRTVQT	76	–
TTRRFRVT	4.3	–
TVRQFKTT	8.8	–

Second part, led by results:

Kd [2] [nM]	Molecule	also measured
16	CC(=O)N[C@@H](CCC(N)=O)C(=O)N[C@@H](C(=O)N[C@@H](CCCNC(=N)N)C(=O)N[C@@H](CCC(N)=O)C(=O)N[C@@H](Cc1ccccc1)C(=O)N[C@@H](CCCCN)C(=O)N[C@H](C(=O)N[C@H](C(=O)O)[C@@H](C)O)[C@@H](C)O)C(C)C [QvRQFKTT] (Ac-Q[dV]RQFKTT-OH)	–
0.29	CC(=O)N[C@H](C(=O)N[C@@H](Cc1ccccc1)C(=O)N[C@@H](CCCNC(=N)N)C(=O)N[C@@H](CCC(N)=O)C(=O)N[C@@H](Cc1ccccc1)C(=O)N[C@@H](CCCCN)C(=O)N[C@H](C(=O)N[C@H](C(=O)O)[C@@H](C)O)C(C)C)[C@@H](C)O [TFRQFKVT] (Ac-TFRQFKVT-OH)	–
1400	CC(=O)N[C@H](C(=O)N[C@@H](Cc1ccccc1)C(=O)N[C@@H](CCCNC(=N)N)C(=O)N[C@@H](C(=O)N[C@@H](Cc1ccccc1)C(=O)N[C@@H](CCCNC(=N)N)C(=O)N[C@H](C(=O)N[C@H](C(=O)O)[C@@H](C)O)C(C)C)C(C)C)[C@@H](C)O [TFRvFRVT] (Ac-TFR[dV]FRVT-OH)	–
560	CC(=O)N[C@H](C(=O)N[C@@H](CCC(N)=O)C(=O)N[C@@H](Cc1ccccc1)C(=O)N[C@@H](CCCCN)C(=O)N[C@H](C(=O)N[C@H](C(=O)N[C@@H](CCCCN)C(=O)N[C@H](C(=O)O)[C@@H](C)O)[C@@H](C)O)C(C)C)[C@@H](C)O [TQFKVTKT] (Ac-TQFKVTKT-OH)	–
370	QQFKVVQT	–
